Patent US20040122096A1, “Use of inhibitors of the cellular Na+/H+ exchanger (NHE) for preparing a medicament for normalizing serum lipids” (Hoechst Aktiengesellschaft, priority 1996, published 2004)

Tested on: male New Zealand white rabbits
Assay: Serum total cholesterol and lipoprotein fractions in rabbits after 30 days feeding
Format: in vivo, rabbit
Conditions: mean ± SEM
Description: This antihyperlipidemic action is shown for an NHE inhibitor, 4-isopropyl-3-methylsulfonylbenzoylguanidine methanesulfonate (Hoe 642), in the following table, male New Zealand white rabbits (n=28) having a weight of 3-4 kg being used and divided into four groups of 7 animals in each case randomized as described below: 1) standard rabbit feed (®Altromin 2834), 2) atherogenic diet having a content of 0.25% cholesterol and 3% coconut oil, 3) standard rabbit feed+Hoe 642 (0.1%), 4) atherogenic diet+Hoe 642 (0.1%). Blood samples were taken once after 30 days feeding by puncture of the auricular artery. Serum was obtained from the blood. The total cholesterol was measured from the serum by means of the CHOD (cholesterol oxidase)-PAP method (Merckotest, Merck Diagnostics, E. Merck, 64271 Darmstadt, Germany). The separation of the lipoproteins was carried out, likewise from the serum, by FPLC (fast protein liquid chromatography) method (März et al. 1993, Clin. Chem. 39/11:2276-2281).

[1] = atherogenic diet (0.25% cholesterol, 3% coconut oil) + Hoe 642 0.1%
[2] = normal diet (standard rabbit feed) + Hoe 642 0.1%

CC(C)c1ccc(C(=O)NC(=N)N)cc1S(C)(=O)=O [HOE 642, 4-isopropyl-3-methylsulfonylbenzoylguanidine methanesulfonate]
LDL (serum cholesterol fraction) [1]: 2.1 ± 0.2 mmol/L | Total cholesterol (serum) [1]: 7.95 ± 0.89 mmol/L | VLDL (serum cholesterol fraction) [1]: 4.6 ± 0.6 mmol/L | LDL (serum cholesterol fraction) [2]: 0.23 ± 0.04 mmol/L | Total cholesterol (serum) [2]: 0.69 ± 0.1 mmol/L | VLDL (serum cholesterol fraction) [2]: 0.05 ± 0.02 mmol/L
